The text below walks through data of patent US5866577A, “Aromatic amidine derivatives and salts thereof” (priority 1991, dated 1999).

Data set [1] is described as follows: Measurement of Solubility in Water.
Protocol: A fixed amount of water was added to a varying amounts of each sample, and the mixture was agitated on a shaker at 25° C. for 10 minutes.
For data set [2] the following is noted: prior-art statement; cited from earlier work.
The subject of a further data set is FXa and thrombin. The note with it: prior-art statement; cited from earlier work.
A further data set concerns anticoagulant effect. The settings on record: oral; prior-art statement; cited from earlier work.
The next data set deals with human FXa (Homo sapiens, UniProt P00742). The experiment in a line: Measurement of Activated Blood Coagulation Factor X (FXa) Inhibition Activity. Type of data set: biochemical. The note with it: substrate S-2222, 37° C., 15 minutes. How it is done:
Measurement of Activated Blood Coagulation Factor X (FXa) Inhibition Activity
A 180 μl portion of physiological saline solution containing a compound to be tested was mixed with 200 μl of Tris-HCl buffer (pH 8.4) and 100 μl of 1 mM S-2222 (KabiVitrum AB) aqueous solution, and the mixture was incubated at 37° C. 20 μl of Tris-HCl buffered saline (pH 7.45) containing 0.6 unit/ml of human FXa was added to the mixture. After 15 minutes of incubation at the same temperature, the reaction was stopped by adding 100 μl of 60% acetic acid, and absorbance of the reaction mixture was measured. A reaction mixture with no addition of a test compound was used as a blank, and another reaction mixture in which 60% acetic acid was added prior to the addition of FXa was used as a control.

Data set [3] concerns human blood plasma (clotting time). The experiment in a line: Measurement of Anticoagulant Activity (plasma clotting time, CT2). Type of data set: biochemical. The note with it: concentration which doubles the control clotting time, 37° C. As for the experimental part: Measurement of Anticoagulant Activity A blood plasma sample was prepared from human blood using a centrifuge. […] Thereafter, clotting time was measured using CLOTEC (Sanko Junyaku Co., Ltd.). A clotting time measured without adding a compound to be tested was used as a control, and a concentration of the test compound which doubles the control clotting time was calculated (hereinafter referred to as "CT2") as an index of the anticoagulant activity.

The test system of data set [4] is male Slc:SD rats. The experiment in a line: Toxicity Test by Single Oral Administration to Rat. The settings on record: in vivo.
Data set [5] has as its system male Slc:SD rats. The experiment in a line: Toxicity Test by Repeated Oral Administration to Rat. It counts as in vivo. As for the experimental part: Toxicity Test by Repeated Oral Administration to Rat
Each of the compounds of the present invention was dissolved in distilled water and administered orally to each of five five-week old male Slc:SD rats, at a dose of 800 mg/kg body weight. The oral administration was carried out once a day and repeated for 10 days to observe mortality.

Data set [6] concerns thrombus formed on copper wire in arteriovenous shunt. In words: Antithrombotic Effect by Oral Administration to Rat in an Arteriovenous Shunt Model. The note with it: for Thrombus formed: mean ± S.E. (n = 6), p < 0.05 per control. Type of data set: in vivo, male STD:Wistar rat. How it is done: Antithrombotic Effect by Oral Administration to Rat in an Arteriovenous Shunt Model
Amtithrombotic effect by oral administration of the compound of the present invention was measured by slightly modifying the procedure disclosed in Thrombosis Research, vol. 54, pp. 399-410, 1989.
A predetermined amount of a compound to be tested was dissolved in purified water and administered orally to a male STD:Wistar rat, and the rat was anesthetized 15 minutes after the administration. An artery clip was attached to proximally the carotid artery of the thus anesthetized rat to stop blood circulation and to insert and fix an end of a shunt filled with physiological saline, while the other end of the shunt was inserted into the jugular vein and fixed. In this instance, the shunt was prepared by indwelling a copper wire (0.17 mm in diameter and 20 cm in length) in a polyethylene tube (Hibiki No. 5; 5/3 mm in outer diameter and 21 cm in length) and connecting each end of the tube with a polyethylene tube (Hibiki No. 3; 1 mm in outer diameter and 3 cm in length) using a 3 mm silicone tube. After 30 minutes of the administration, the artery clip was removed to flow blood into the shunt. After 7 minutes of the blood recirculation, the copper wire was pulled out together with formed thrombus and washed with 10 ml of physiological saline. Thereafter, the amount of thrombus formed on the copper wire was determined as protein in accordance with the procedure disclosed in Journal of Biological Chemistry, vol. 193, pp. 265-275, 1951. As a control, water was administered instead of the compound to be tested to calculate thrombosis inhibition rate after administration of the compound.

A short description of data set [7]: Solubility observed in preparation (solubility to any solvent). The note with it: hydrochloride monohydrate. Type of data set: physicochemical.
Data set [8] deals with activated partial thromboplastin time (APTT). In words: Measurement of Anticoagulant Activity in Oral Administration (APTT). It counts as in vivo, male STD:Wistar rat. The settings on record: rat, 100 mg/kg. As for the experimental part: Measurement of Anticoagulant Activity in Oral Administration
An aqueous solution of each compound to be tested was administered orally to each male STD:Wistar rat individual under an anesthetic, at a dose of 10 ml/kg body weight. Blood samples were collected periodically and blood plasma preparations were obtained from the samples to measure activated partial thromboplastin time (APTT). In the same manner, APTT was measured by administering pure water and used as a control. A test/control APTT ratio was calculated and used as an index of the anticoagulant activity.

The next data set concerns the target T1, thrombin (Bos taurus, UniProt P00735).
T1 construct: thrombin (for topical application use, Sankyo Co., Ltd.); purchased Sankyo Co., Ltd
The experiment in a line: Measurement of Thrombin Inhibition Activity. Type of data set: biochemical. How it is done: Measurement of Thrombin Inhibition Activity
A 100 μl portion of Tris-HCl buffered saline (pH 7.45) (TBS) containing 6 mg/ml of fibrinogen (Type 1, Daiichi Pure Chemicals Co., Ltd.) was mixed with 100 μl of physiological saline solution. At 37° C., 100 μl of Tris-HCl buffered saline (pH 7.45) (TBS) containing varying amounts of thrombin (for topical application use, Sankyo Co., Ltd.) was added to the mixture prepared above to measure clotting time using CLOTEC (Sanko Junyaku Co., Ltd.) and to prepare a calibration curve.

Where [9] appears, read: oral 800 mg/kg once a day for 10 days, 5 rats administered.

Each structure is given as a SMILES string. Counter-ions that a name gives are not always drawn.

Chain of human FXa (P00742 235-488 limits assumed): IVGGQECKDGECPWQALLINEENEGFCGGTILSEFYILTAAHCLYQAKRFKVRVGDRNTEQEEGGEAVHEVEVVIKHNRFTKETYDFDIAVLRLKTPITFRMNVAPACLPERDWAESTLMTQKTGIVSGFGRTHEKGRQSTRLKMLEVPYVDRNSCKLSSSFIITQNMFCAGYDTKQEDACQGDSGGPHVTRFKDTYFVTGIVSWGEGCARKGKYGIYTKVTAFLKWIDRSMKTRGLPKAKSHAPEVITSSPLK
Chain of human FXa (P00742 41-179 limits assumed): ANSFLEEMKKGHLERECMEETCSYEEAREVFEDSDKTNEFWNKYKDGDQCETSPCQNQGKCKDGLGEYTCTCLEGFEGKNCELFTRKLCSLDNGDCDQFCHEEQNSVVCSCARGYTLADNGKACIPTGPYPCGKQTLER

In [1], `N=C(N)c1ccc2oc(CCc3cc4cc(C(=N)N)ccc4o3)cc2c1` [DABE, 1,2-bis(5-amidino-2-benzofuranyl)ethane, reference compound] gave a solubility at 10 min of no more than 5 mg/mL. In addition, in data set [2], the “water solubility (in words)” value is “very low water solubility”. Besides, the “separation of FXa and thrombin inhibitory activities (in words)” value with FXa and thrombin is recorded as “cannot be separated sufficiently from each other”. In the data set with anticoagulant effect, the “anticoagulant effect when administered orally (in words)” value is reported as “does not show its anticoagulant effect when administered orally”. For the same compound, at human FXa, half-maximal inhibition (IC50) was put at 95 nM. The “Anti-Coagulation CT2” value in data set [3] amounted to 1.6 µM.
Regarding `CC(=N)N1CC[C@H](Oc2ccc(C(Cc3ccc4ccc(C(=N)N)cc4c3)C(=O)O)cc2)C1.Cl.O.O.O.O.O` (single isomer, unassigned; (+)) [Inventive Example 45], the mortality result in the data set on male Slc:SD rats [4] is “No mortal case”. The solubility at 10 min in data set [1] is no less than 200 mg/mL. Besides, the “Mortal Case” value in the data set on male Slc:SD rats [5] (setting [9]) is 0. In data set [6] (10 mg/kg), the Thrombosis inhibition worked out at 34% and the Thrombus formed turned out to be 585 ± 85 µg. Also, in data set [6] (30 mg/kg), the Thrombosis inhibition came to 60% and the Thrombus formed was determined as 356 ± 51 µg. In [3], the “Anti-Coagulation CT2” value came out at 0.49 µM.
Regarding `CC(=N)N1CC[C@H](Oc2ccc(C(Cc3cc4cc(C(=N)N)ccc4s3)C(=O)O)cc2)C1` (stereo partly drawn) [Inventive Example 88, 2-[4-[((3S)-1-acetimidoyl-3-pyrrolidinyl)oxy]phenyl]-3-(5-amidinobenzo[b]thien-^2-yl)propionic Acid Dihydrochloride], the “Mortal Case” value in the data set on male Slc:SD rats [5] (setting [9]) is 0.
As to `Cl.N=C(N)c1ccc2ccc(CC(C(=O)O)c3ccc(OCC4CCNCC4)cc3)cc2c1.O` (centres unmarked) [Inventive Example 18, 3-(7-amidino-2-naphthyl)-2-[4-[(4-piperidinyl)methoxy]-phenyl]propionic Acid Hydrochloride Monohydrate], the “solubility to any solvent (in words)” value in data set [7] is “very low”.
Take `Cl.Cl.N=C(N)c1ccc2cc(CC(C(=O)O)c3ccc(O[C@H]4CCNC4)cc3)[nH]c2c1` (stereo partly drawn) [Inventive Example 69, 3-(6-amidino-2-indolyl)-2-[4-[((3S)-3-pyrrolidinyl)oxy]-phenyl]propionic Acid Dihydrochloride]: the “Mortal Case” value in the data set on male Slc:SD rats [5] (rat, in vivo, po, 800 mg/kg) is recorded as 0.
Take `CC(=N)N1CCC[C@H]1COc1ccc(C(Cc2cc3cc(C(=N)N)ccc3s2)C(=O)O)cc1.Cl.Cl` (stereo partly drawn) [Inventive Example 96, 2-[4-[((2S)-1-acetimidoyl-2-pyrrolidinyl)methoxy]phenyl]-3-(5-amidinobenzo[b]thien-2-yl)propionic Acid Dihydrochloride]: the solubility at 10 min in data set [1] is no less than 400 mg/mL. Besides, the “Test/Control APTT Ratio” value in [8] (0.5 hr) is reported as 1.68; in data set [8] (1 hr), 1.64; in data set [8] (2 hr), 1.57; in data set [8] (4 hr) it was 1.42. For the same compound, the IC50 at thrombin came to 29000 nM; against human FXa, 44 nM. Further, in data set [3], the “Anti-Coagulation CT2” value is 0.54 µM.
`Cl.Cl.N=C(N)c1ccc2oc(CC(C(=O)O)c3ccc(O[C@H]4CCNC4)cc3)cc2c1` (stereo partly drawn) [Inventive Example 19, 3-(5-amidino-2-benzofuranyl)-2-[4-[((3S)-3-pyrrolidinyl)-oxy]phenyl]propionic Acid Dihydrochloride]: the solubility at 10 min in data set [1] was no less than 450 mg/mL. For the same compound, the “Mortal Case” value in the data set on male Slc:SD rats [5] (setting [9]) is given as 0.
The compound `Cl.Cl.N=C(N)c1ccc2sc(CC(C(=O)O)c3ccc(O[C@H]4CCNC4)cc3)cc2c1` (stereo partly drawn) [Inventive Example 25, 3-(5-amidinobenzo[b]thien-2-yl)-2-[4-[((3S)-3-pyrrolidin-yl)oxy]phenyl]propionic Acid Dihydrochloride] returned a solubility at 10 min in data set [1] of no less than 500 mg/mL. Besides, in the data set on male Slc:SD rats [5] (setting [9]), the “Mortal Case” value stood at 0.
